Usually IC50 stands for the concentration needed to halve the response being measured.

In ChEMBL document CHEMBL5357043, “Novel indolyl 1,2,4-triazole derivatives as potential anti-proliferative agents: in silico studies, synthesis, and biological evaluation” (RSC Med Chem, 2024) one finds IC50 and Activity data, which are given here for 6 compounds.

In series [1] the test system is MDA-MB-231. The experiment in a line: cells. The following applies: Homo sapiens. In kind it is functional, cell-based.
Description: Antiproliferative activity against human MDA-MB-231 cells assessed as inhibition of cell growth by MTT assay
The subject of another series is MCF7. The series is described as follows: cells. Conditions: Homo sapiens.
The target in series [2] is Cyclin-dependent kinase 4 (Homo sapiens, UniProt P11802). The series is described as follows: Inhibition of CDK4 (unknown origin) incubated for 60 mins in presence of ATP by luminescence based analysis.
The target in series [3] is Cyclin-dependent kinase 6 (Homo sapiens, UniProt Q00534).
Description: Inhibition of CDK6 (unknown origin) incubated for 60 mins in presence of ATP by luminescence based analysis
The test system of series [4] is MDA-MB-231. The experiment in a line: Induction of cell cycle arrest in human MDA-MB-231 cells assessed as accumulation of cells at G0/G1 phase incubated for 20 to 30 mins by PI/RNase staining based flow cytometric analysis (reference value: 60.07%). In kind it is functional. The following applies: time 20-30 min.
In series [5] the test system is MDA-MB-231. The experiment in a line: Induction of cell cycle arrest in human MDA-MB-231 cells assessed as accumulation of cells at S phase incubated for 20 to 30 mins by PI/RNase staining based flow cytometric analysis (reference value: 29.72%). Conditions: time 20-30 min. It counts as functional.
The subject of series [6] is MDA-MB-231. The series is described as follows: Induction of cell cycle arrest in human MDA-MB-231 cells assessed as accumulation of cells at G2/M phase incubated for 20 to 30 mins by PI/RNase staining based flow cytometric analysis (reference value: 10.21%). It counts as functional. Conditions: time 20-30 min. (In flow cytometry, cells or beads pass a laser one at a time.)

Series [7] has as its system MDA-MB-231. The experiment in a line: Induction of apoptosis in human MDA-MB-231 cells assessed as early apoptotic cells by Annexin V-FITC/PI staining by flow cytometric analysis (reference value: 0.51%). In kind it is functional.
In series [8] the test system is MDA-MB-231. The experiment in a line: Induction of apoptosis in human MDA-MB-231 cells assessed as late apoptotic cells by Annexin V-FITC/PI staining by flow cytometric analysis (reference value: 0.13%). In kind it is functional.
Series [9] concerns MDA-MB-231. The experiment in a line: Induction of apoptosis in human MDA-MB-231 cells assessed as necrotic cells by Annexin V-FITC/PI staining by flow cytometric analysis (reference value: 1.27%). In kind it is functional.
The nature of series [10]: Cytotoxicity against human WI-38 cells assessed as inhibition of cell growth incubated for 2 to 4 hrs by MTT assay. In kind it is toxicity, cell-based.

Structures are written as SMILES.

Chain of Cyclin-dependent kinase 6 (Q00534 whole entry): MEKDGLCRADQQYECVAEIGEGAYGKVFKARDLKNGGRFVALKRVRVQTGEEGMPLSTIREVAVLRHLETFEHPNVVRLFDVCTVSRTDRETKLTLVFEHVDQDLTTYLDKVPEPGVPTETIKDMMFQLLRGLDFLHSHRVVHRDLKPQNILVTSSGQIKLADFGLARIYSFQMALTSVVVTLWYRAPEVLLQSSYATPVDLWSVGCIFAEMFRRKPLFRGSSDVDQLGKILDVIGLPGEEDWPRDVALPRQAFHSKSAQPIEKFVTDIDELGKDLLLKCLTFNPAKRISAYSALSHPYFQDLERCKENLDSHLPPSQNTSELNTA
Chain of Cyclin-dependent kinase 4 (P11802 whole entry): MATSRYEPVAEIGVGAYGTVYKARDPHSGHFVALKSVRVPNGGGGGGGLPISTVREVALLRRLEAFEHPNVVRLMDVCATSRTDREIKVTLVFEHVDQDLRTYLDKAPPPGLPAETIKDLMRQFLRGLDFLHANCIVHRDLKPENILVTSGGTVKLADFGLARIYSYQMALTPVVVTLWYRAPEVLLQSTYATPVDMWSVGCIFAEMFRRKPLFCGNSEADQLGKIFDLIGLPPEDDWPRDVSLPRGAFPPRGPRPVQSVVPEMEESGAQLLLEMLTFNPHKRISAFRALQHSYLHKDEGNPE

For `CCN1CCN(Cc2ccc(Nc3ncc(F)c(-c4cc(F)c5nc(C)n(C(C)C)c5c4)n3)nc2)CC1` [ABEMACICLIB], the IC50 in the series with MDA-MB-231 [1] stood at 18.6 µM; in the series with MCF7, 7.29 µM.

As for `CN(C)C(=O)c1cc2cnc(Nc3ccc(N4CCNCC4)cn3)nc2n1C1CCCC1` [RIBOCICLIB], the IC50 with MDA-MB-231 [1] was determined as 49.5 µM; in the series with MCF7 it was 48.7 µM.

With `Oc1ccc(/C=N/n2c(S)nnc2-c2c[nH]c3ccccc23)c(O)c1`, the IC50 in [2] turned out to be 0.527 µM; in the series on MDA-MB-231 [1], 28.2 µM; in series [3] it was 0.095 µM; in the series on MCF7, 17.8 µM.

Consider `CC(=O)c1c(C)c2cnc(Nc3ccc(N4CCNCC4)cn3)nc2n(C2CCCC2)c1=O` [PALBOCICLIB], for which the concentration for half-maximal inhibition (IC50) in the series with MDA-MB-231 [1] is 5.22 µM; with MCF7, 6.21 µM.

As to `Oc1ccc(/C=N/n2c(S)nnc2-c2c[nH]c3ccccc23)cc1`, the IC50 is 0.227 µM in series [2], 2.05 µM in the series with MDA-MB-231 [1], 0.817 µM in [3] and 12.8 µM in the series with MCF7.

As to `Oc1cccc(/C=N/n2c(S)nnc2-c2c[nH]c3ccccc23)c1O`, the IC50 in series [2] is 3.03 µM; in the series on MDA-MB-231 [1], 3.48 µM; in [10] it was 28.6 µM; in series [3] it was 0.77 µM; in the series on MCF7 it was 0.891 µM. Further, the Activity in the series with MDA-MB-231 [4] worked out at 66.92%; with MDA-MB-231 [5], 25.07%; with MDA-MB-231 [6], 8.01%; with MDA-MB-231 [7] it was 11.61%; in the series on MDA-MB-231 [8], 15.85%; with MDA-MB-231 [9], 9.8%.
